Assay results reported in US20260294885A1, “TREATMENT OF INFLAMMATORY CONDITIONS COMPRISING IMU-856” (IMMUNIC AG, priority 2023, published 2026).
“Also recorded” adds a separate entry of the source.

Assays:
SIRT6 = SIRT6 (Homo sapiens, UniProt Q8N6T7); test: SIRT6 deacetylation of acetylated H3K56 in a cellular system; type: cell-based
[1] = tested on: other histone deacetylases (HDACs); test: Enzymatic activity of other histone deacetylases; type: biochemical
[2] = tested on: colorectal adenocarcinoma-2 (Caco-2) cells; test: TEER recovery across a Caco-2 monolayer following inflammation with TNF-α or IL-6; type: cell-based, human
Excerpt: In one TEER model, tight junction (TJ)-related proteins were investigated, and a normalisation of TJ proteins (claudin (Cldn)-1 and claudin-2) was observed.
CaCo2 cell line is derived from human epithelial cells from the colon. They are frequently used to mimic intestinal barrier function to either look at permeability of drugs or to look at is functional resistance. For the present experiment, the CaCo2 cells were used to mimic the […] LEFT OUT] and investigate the effect of IMU-856 on this by measuring the electrical transepithelial resistance (TEER). […] For this CaCo2 cells, cultivated in a 6-well trans well plate on top of the membrane that has small pores that prevent the cells from going through but allow molecules and nutrients to pass. […] Then, cells were washed and fresh medium with vehicle or IMU-856 was given. TEER was measured before and after challenge at different time points. For correct measurement, the shorter electrode is inserted into the transwell chamber (without touching the cells), and the longer electrode is inserted in the outer well.

DSS-induced colitis = test: Therapeutic DSS-induced colitis mouse model (Example 3); type: in vivo, male C57BL/6 mice; settings: 1 mg/kg per oral gavage once daily for 5 days from disease onset
Protocol: For this model, which is an often-used in vivo model for IBD, male C57BL/6 mice were treated with 2.8% DSS in drinking water for 5 days. Treatment with either vehicle (PEG400), 60 mg/kg sulfasalazine (positive control) or 1 mg/kg IMU-856 was given at disease onset (day 4 after start of DSS treatment) per oral gavage once daily for 5 days. Diarrhea score (normal consistency; soft; pasty, unshaped, not sticking to anus; diarrhea, sticking to anus; diarrhea with macroscopic bleeding) was assessed daily.
At the end of the study, mice were sacrificed and the colon was collected. Colon histology score consisting of an architecture score (0-3) and an infiltration score (0-3) was assessed based on hematoxylin and eosin-stained tissues slices.

healthy subjects = test: Phase I safety in healthy subjects (Parts A and B); type: in vivo, human
Protocol: (§1) In Part A, healthy subjects were randomised to single ascending doses of IMU-856 (10 mg to 160 mg) or placebo. In Part B healthy subjects were randomised to multiple once-daily doses of IMU-856 (40, 80, and 160 mg) or placebo for 14 days. Part C randomised patients with celiac disease who were on a gluten-free diet to multiple once-daily doses of IMU-856 (80 mg and 160 mg) or placebo for 28 days; a once-daily gluten challenge (6 g) was introduced on Day 14 and ended on Day 28. 71 healthy subjects were enrolled in Part A and B (N=19 placebo and N=52 IMU-856) and 43 patients with CelD in Part C (N=14 placebo; N=14 for 80 mg, and N=15 for 160 mg). In Parts A and B, treatment-emergent adverse events (TEAEs) occurred in 24 (73%) and 15 (79%) of subjects receiving any dose of IMU-856 compared to 6 (50%) and 5 (71%) with placebo, respectively. […] In Part C, the most common adverse events with any dose of IMU-856 by preferred term were headache (13 [45%]), nausea (9 [31%]), diarrhoea (8 [28%]), and abdominal distension (7 [24%]). […] In Part C, the mean change in villous height from baseline to Day 29 with 80 mg and 160 mg was −20.9±34.8 μm, and −22.5±51.1 μm, respectively, and −60.3±52.2 μm with placebo. […] Mean change in plasma citrulline increased with 80 mg and 160 mg from baseline to Day 14 (2.4±6.2 and 6.1±5.9 μmol/L, respectively) and from baseline to Day 29 (2.8±7.6 and 2.2±5.3 μmol/L, respectively), but not with placebo (−2.7±5.6 and −4.0±6.5 μmol/L). […] Mean increase in zinc levels from baseline to Day 29 with 80 mg and 160 mg were 0.3±1.4 and 0.9±2.1 μmol/L compared to a mean decrease in placebo (−0.9±2.1 μmol/L). Gluten-induced symptoms were also attenuated by IMU-856.

[3] = Clinical pharmacokinetics; type: in vivo, human
Protocol: as §1

IL-2 = test: Serum IL-2 release on gluten challenge, Part C; type: in vivo, human; settings: first day of gluten challenge (Day 14)
Protocol: Also, biomarker response upon treatment of CelD with IMU-856 was assessed. […] A wide inter-individual range of IL-2 response leads to large SD, especially in the placebo group. The inter-individual variance regarding IL-2 response decreases with increasing dose levels as illustrated in FIG. 8 (N=39/43 included in IL-2 analysis set. 3 patients not included in this analysis due to early termination and 1 incomplete IL-2 sampling due to site error. Methods used for IL-2 analysis: Milliplex® Human High Sensitivity T Cell Magnetic Bead Panel, 3 plex (Luminex®) and Simoa® CorPlex™ Human IL-2 Kit (Quanterix)).
FIG. 8 illustrates the mean absolute change and maximum change in serum IL-2 (in pg/mL) from pre-gluten to 4 hours post-gluten on first day of gluten challenge (IL: interleukin; SD: standard deviation).

[4] = Part A, any single dose (10 mg to 160 mg)
[5] = Part B, any dose (40, 80, 160 mg once daily, 14 days)

Chain of SIRT6 (Q8N6T7 whole entry): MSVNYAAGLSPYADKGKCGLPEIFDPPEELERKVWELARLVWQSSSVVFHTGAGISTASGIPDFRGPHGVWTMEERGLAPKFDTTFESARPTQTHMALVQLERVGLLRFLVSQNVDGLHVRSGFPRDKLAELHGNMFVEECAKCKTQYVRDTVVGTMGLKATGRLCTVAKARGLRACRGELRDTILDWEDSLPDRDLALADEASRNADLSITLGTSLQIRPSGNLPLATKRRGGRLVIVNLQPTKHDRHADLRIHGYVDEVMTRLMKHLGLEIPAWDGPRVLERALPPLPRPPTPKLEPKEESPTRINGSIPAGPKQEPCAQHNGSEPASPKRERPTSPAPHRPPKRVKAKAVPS

## Cn1c(COc2cc(C(F)(F)F)ccn2)nnc1[C@H]1CC[C@H](c2cnn([C@H]3CC[C@H](N4CC5(CCO5)C4)CC3)c2)CC1 [IMU-856, 6-(trans-4-(4-(trans-4-(4-methyl-5-(((4-(trifluoromethyl)pyridin-2-yl)oxy)methyl)-4H-1,2,4-triazol-3-yl)cyclohexyl)-1H-pyrazol-1-yl)cyclohexyl)-1-oxa-6-azaspiro[3.3]heptane]
SIRT6
  deacetylation of H3K56: prevents the deacetylation
[1]
  inhibition of enzymatic activity of other HDACs: does not inhibit
[2]; following inflammation with IL-6
  recovery of TEER: significantly accelerates the recovery
[2]; following inflammation with TNF-α
  recovery of TEER: significantly accelerates the recovery
DSS-induced colitis
  colon histology score: reduction in the histology score
  diarrhea score: improvement of the diarrhea score which was similar or even better than the positive control
Healthy subjects; [4]
  subjects with TEAEs (number): 24
  subjects with TEAEs (percentage): 73%
Healthy subjects; Part B
  serious adverse events: 1
Healthy subjects; [5]
  subjects with TEAEs (number): 15
  subjects with TEAEs (percentage): 79%
Healthy subjects; Parts A and B
  severity of TEAEs: mild in severity
[3]; daily dosing
  accumulation factor: low accumulation factor
  steady-state plasma concentrations, time to achievement: within the first week
[3]; human, plasma, steady-state
  half-life: 17.4 to 21.5 h
[3]; human, plasma, steady-state, post-dose
  Tmax: 2 to 3 h
[3]; over the 14-day treatment period
  steady-state trough levels: stable steady-state trough levels
[3]; steady-state
  AUC dose dependence: dose proportional increases
  Cmax dose dependence: dose proportional increases
IL-2
  gluten-induced acute immune response, IL-2 release: dampens gluten-induced acute immune response, as measured by IL-2 release, in a dose-dependent fashion; also recorded: dose-dependent lessening of acute immune response
